Like-named read-outs stand apart in the source and are kept apart here.
Key:
[1] = molecular target: T1, Recombinant human ALOX15 (Arachidonate 15-Lipoxygenase) (Homo sapiens, UniProt P16050); test: Biochemical LOX-15 assay
T1 construct: full length encompassing amino acids 2-662(end); FLAG (N); purchased BPS Biosciences 50220
T1 sequence (P16050 2-662): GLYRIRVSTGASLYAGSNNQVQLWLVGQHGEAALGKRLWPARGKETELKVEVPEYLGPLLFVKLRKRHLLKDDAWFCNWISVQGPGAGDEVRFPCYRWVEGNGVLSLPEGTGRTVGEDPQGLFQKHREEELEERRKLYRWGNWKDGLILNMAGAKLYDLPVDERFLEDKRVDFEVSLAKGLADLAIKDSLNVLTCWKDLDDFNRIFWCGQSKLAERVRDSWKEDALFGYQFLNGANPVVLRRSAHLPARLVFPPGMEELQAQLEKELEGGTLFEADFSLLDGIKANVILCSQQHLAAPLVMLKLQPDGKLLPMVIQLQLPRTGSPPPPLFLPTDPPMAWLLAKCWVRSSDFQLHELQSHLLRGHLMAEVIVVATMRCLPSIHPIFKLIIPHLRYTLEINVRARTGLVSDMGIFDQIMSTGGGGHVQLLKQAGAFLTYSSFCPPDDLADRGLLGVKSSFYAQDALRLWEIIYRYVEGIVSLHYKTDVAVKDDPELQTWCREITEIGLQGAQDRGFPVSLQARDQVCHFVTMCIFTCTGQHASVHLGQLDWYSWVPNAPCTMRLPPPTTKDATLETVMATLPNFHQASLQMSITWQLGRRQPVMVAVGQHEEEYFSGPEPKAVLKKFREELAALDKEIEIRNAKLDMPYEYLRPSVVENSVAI
From the text: • Recombinant human ALOX15 (Arachidonate 15-Lipoxygenase), full length encompassing amino acids 2-662(end). In this construct the N-terminal end of ALOX15 is fused with a FLAG tag was obtained from BPS Biosciences (Cat #50220). • Dihydrorhodamine 123, DHR, was obtained from Sigma (Cat #1054) • Arachidonic acid, AA, was obtained from Sigma (Cat #A3611) • Other reagents: black 384 well assay plates were obtained from Corning (Cat #3820). • Equipment: Synergy Neo2 Multi-mode plate reader (Biotek), Labcyte 550 acoustic dispenser (Labcyte), Biomek FX robotic dispenser (Beckman Coulter), Sorvall Legend RT centrifuge (Kendro).
The LOX-15 assay was performed in assay buffer comprising: 50 mM Tris (pH 7.5),), 5 uM DHR, 50 uM AA, and 50 nM recombinant enzyme. Serially diluted compounds were prepared in DMSO in Echo qualified 384 well plates. An assay buffer was then prepared without supplemented 10 uM DHRA. 10 uL of the supplemented buffer was dispensed into control (no enzyme) wells in the black 384well assay plate. Next, a 2× enzyme solution was prepared, comprising 100 nM LOX-15 enzyme in the supplemented assay buffer. 10 uL of the 2× enzyme solution was then dispensed into test wells in the black 384well assay plate. Serially diluted compounds were added to the assay plate by acoustic dispensing (Labcyte 550). Control wells received DMSO only.
Next, the 2× substrate was prepared to comprise 100 uM arachidonic acid in the assay buffer. 10 uL of the 2× substrate was then added to all wells in the assay plate. The plate was incubated for 3 hours. The plate was read on Synergy Neo2 in fluorescence mode: excitation 485 nm, emission 530 nm. % inhibition and the resulting IC50 was calculated for the compound using the following equation:
[formula] • where RFU100% is fluorescence in control samples without compound, RFU0% is fluorescence in control samples without LOX-15, and RFUcompound fluorescence in a sample with compound.
(§1) The calculated %-Inh values were plotted against compound concentration. To determine IC50 values, dose-response curves were fitted by a 4-parameter sigmoid inhibition model using XLFit® software (IDBS).

IL-6 = IL-6 secretion assay in human PBMCs (LPS-stimulated, ELISA); format: cell-based; conditions: PBMC, LPS 100 ng/mL 6 hr, read-out: IL6 inhibitory activity IC50
Description: Fetal bovine serum (FBS) was obtained from ThermoFisher (Cat #16000044). • Other reagents: 96well TC plates were obtained from ThermoFisher (Cat #07-2000-90). LPS was obtained from Sigma (Cat #L3024).
IL-6 was assessed using a standard ELISA protocol. Cryopreserved PBMCs were thawed in a water bath and transferred to 50 mL polypropylene tubes. The cells were washed two times with 25 mL of RPMI medium supplemented with 5% of heat-inactivated FBS and re-suspended at a density of 4.5^10^6 cells/mL. The cells were plated into 96 well TC late (100 uL/well). Serially diluted compound was added to the cells in duplicate wells for each concentration. Control wells received DMSO only (0.3% final). The cells were pre-incubated with compound for 1 hr. After pre-incubation, the cells were stimulated by LPS (100 ng/mL) for 6 hr. Control samples with and without LPS in the absence of compound were assembled in each test plate. IL-6 was detected in media supernatants by using a sandwich anti-IL-6 ELISA kit (BD Biosciences) according to protocol provided by the manufacturer. ELISA readout (optical density at 450 nm) is commensurable with the amount of IL-6 produced by the cells. Assay window was determined in each experiment by comparing average OD450 values in stimulated and un-stimulated samples in the absence of compound. ELISA calibration was performed in each detection plate using serially diluted recombinant human IL-6, to ensure that OD450 values for all test samples were within linear range of detection.%-Inhibition by compound was calculated using following equation:
[formula] • where OD450100% is optical density in control samples stimulated with LPS without compound, OD4500% is optical density in unstimulated control samples, and OD450compound is optical density in a sample stimulated with LPS in the presence of compound.
as §1

[2] = 50 nM recombinant enzyme, 50 uM AA, read-out: 15-Lox inhibitory activity IC50

SMILES | IC50 [1, 2] | IC50 (IL-6) | IC50 [1]
CCCCCc1cc(OC)c2c(c1OC)OC(C)(CCC=C(C)C)C=C2 (stereo not shown) [Formula XXIV] | > 10 µM | 14.4 µM | –
CCCCCc1cc(O)c2c(c1O)OC(C)(CCC=C(C)C)C=C2 (stereo not shown) [Formula XXII] | 1.22 µM | > 10 µM | –
CCCCCc1cc(OC(C)=O)c2c(c1OC(C)=O)OC(C)(CCC=C(C)C)C=C2 (stereo not shown) [Formula XXIII] | > 10 µM | 8.7 µM | –
CCCCCC1=CC(=O)C2=C(OC(C)(CCC=C(C)C)C=C2)C1=O (stereo not shown) [Formula II] | 5.4 µM | 1.2 µM | –
CCCCCC1=C(NCCC)C(=O)C2=C(OC(C)(CCC=C(C)C)C=C2)C1=O (stereo not shown) [Formula XXV] | 5.7 µM | 9.3 µM | –
CC(C)=CCCC1(C)C=CC2=C(O1)C(=O)c1ccccc1C2=O (stereo not shown) [Formula XXVII] | – | > 10 µM | > 10 µM
CCCCCC1=C(NCC)C(=O)C2=C(OC(C)(CCC=C(C)C)C=C2)C1=O (stereo not shown) [Formula XXVIII] | > 10 µM | > 10 µM | –
CCCCCC1=CC(=O)C2=C(O[C@](C)(CCC=C(C)C)C=C2)C1=O [Formula XXVI] | 1.93 µM | 1.07 µM | –
